Measurements as given in PMC10285648, “iTAG an optimized IMiD-induced degron for targeted protein degradation in human and murine cells” (iScience, 2023).

Key:
cMYC-EGFP-DCD23 = test: Degradation of cMYC-EGFP-DCD23 in HMEC (flow cytometry, western blotting); type: cell-based, human
Text: To systematically delineate the optimal DCD/degrader combination for targeted protein degradation, we undertook a matrix approach evaluating all 23 DCD tags against 6 small molecule degraders. […] To control for any potential off-target effects of the IMiD/CeLMOD agents that could indirectly affect the target of interest, we designed controls in which the specific DCD and the EGFP sequences were interspaced by a P2A ribosomal “skipping” sequence,[32] leading to separate translation of the DCD and the target protein (Figure 1A). These constructs were then inserted into a doxycycline-inducible lentiviral vector system and stably expressed in hTERT immortalized human mammary epithelial cells (HMEC), a suitable model to assess the functional consequences of cMYC degradation. cMYC was tagged at the C-terminus end for the initial screening experiments.
Figure 1 Design and experimental evaluation of the DCD tags (A) Representation of the experimental pipeline used to evaluate the different DCD constructs. […] Median EGFP intensity was measured in each condition using flow cytometry (3 independent experiments, normalized to the control and represented as mean ± SD). […] The protein lysates were probed for cMYC levels using western blotting. […] Target loss was evaluated either by measuring EGFP median intensity using flow cytometry or western blotting for cMYC protein (3 independent experiments, normalized to the control and represented as mean ± SD). […] Target loss was evaluated as in (D) (3 independent experiments, normalized to the control and represented as mean ± SD). […] Protein lysates were collected and probed for cMYC and p21 using western blotting. […] Protein lysates were collected and probed for cMYC and p21 using western blotting. […] These were left out as controls with no test substance.
Following degrader treatment cells were collected and DAPI was added to the cell suspension at 1 μg/mL to allow the exclusion of dead cells. EGFP signal was measured using BD LSR II flow cytometer (BD Biosciences). FlowJo 10 Software (FlowJo) was used for data processing.
Cells were lysed with SDS lysis buffer (2% SDS, 10% Glycerol, 50mM Tris pH 6.8) and boiled at 95°C for 30min. Protein concentration was measured using Pierce BCA Protein Assay Kit (ThermoFischer) following manufacturer’s recommendations. Samples were ran in NuPAGETM 10% Bis-Tris Midi electrophoresis gels (Invitrogen) using NuPAGETM MES SDS running buffer (ThermoFischer Scientific).
For western blotting membranes were blocked in a solution of 5% (w/v) bovine serum albumin (BSA; Sigma-Aldrich) dissolved in TBS-0.1% Tween 20 (Sigma-Aldrich) then incubated at 4°C overnight with the primary antibodies diluted in 5% (w/v) BSA/TBS-T. The membranes where then washed and incubated with anti-mouse and/or anti-rabbit secondary antibodies (LI-COR Biosciences) for 2h at RT diluted in 5% (w/v) BSA/TBS-T then washed and imaged using the LI-COR Odyssey (LI-COR Biosciences). Images were analyzed using Image Studio Lite software (LI-COR Biosciences).

[1] = system: N and C-terminally tagged KRAS^[G12V] and EZH2 (DCD23); test: Flow cytometry of EGFP signal, DCD23-tagged KRAS G12V and EZH2 in HMEC; type: cell-based, human; conditions: 10uM, 4h
Text: We tagged the proteins with DCD23 constructs, fused either to their N-terminus or C-terminus (Figures 2A and 2B). We stably transduced HMEC cells with these constructs and assessed their degradation. Cellular treatment with all degraders led to a decrease in the EGFP signal of the N and C-terminally tagged KRAS^[G12V] and EZH2 (Figures 2A and 2B).
Figure 2 Degradation of cytoplasmic and nuclear targets using iTAG (A) HMEC cells expressing N-terminally tagged DCD23-EGFP-KRAS^[G12V], DCD23-EGFP-EZH2, DCD23-EGFP-cMYC or their corresponding P2A control were induced with doxycycline for 24h then treated with either DMSO or the different indicated drugs at a concentration of 10uM for 4h. Median EGFP intensity was measured in each condition using flow cytometry and normalized values were represent in the Log2 Fold change relative to the DMSO control. […] Median EGFP intensity was measured in each condition using flow cytometry and normalized values were represent in the Log2 Fold Change relative to the DMSO control. […]
Cells stably transduced with the iTAG tagged constructs were treated with 1 μg/mL of doxycycline for 24h to induce constructs expression. […] EGFP signal was measured using BD LSR II flow cytometer (BD Biosciences). […]

Flag-HA-DCD23-EGFP = test: Degradation of Flag-HA-DCD23-EGFP in murine cells; type: cell-based, mouse; conditions: for DC50 / DCmax: 24h, flow cytometry
Description: Given the high degradation efficiency of DCD23 in human cells, we sought to test the applicability of this system in murine cells.
The protein lysates were probed for EGFP using western blotting. […] EGFP signal was then measured using flow cytometry. (3 independent experiments, normalized to the control and represented as mean ± SD). […] Data are plotted as Log2 fold change relative to DMSO versus Log10 of p value.
As an additional validation of iTAG (DCD23) induced degradation, we tested the same constructs in murine colorectal carcinoma cells (CT26) where we saw similar loss of EGFP with a panel of IMiD/CeLMODs (Figure S9B).

- DC50 (cMYC-EGFP-DCD23; HMEC, 4h): 2 nM
- DC50 (Flag-HA-DCD23-EGFP; 2208L): 2.7 nM
- DC50 (Flag-HA-DCD23-EGFP; PyMT): 4.3 nM
Structure (SMILES): O=C1CC[C@H](N2Cc3c(OCc4ccc(CN5CCOCC5)cc4)cccc3C2=O)C(=O)N1 [CC220, Iberdomide]
- c-MYC levels after washout (cMYC-EGFP-DCD23; 10μM 4h, then drug washed out, 24h or 48h): restored back to pre-treatment levels
- time to significant degradation of c-MYC tagged with DCD23 (cMYC-EGFP-DCD23; HMEC, 10uM): ≤ 15 min
- p21 levels after degradation of DCD23-tagged cMYC (cMYC-EGFP-DCD23; HMEC, 10μM, 16h, western blotting): restoration of p21 levels
- DCmax at 4h (cMYC-EGFP-DCD23; HMEC, 4h): 75%
- change of EGFP signal [1]: most active degrader
- time of onset of loss of EGFP signal (Flag-HA-DCD23-EGFP; 2208L and PyMT): ≤ 1 h
- degradation of DCD23 tagged EGFP (Flag-HA-DCD23-EGFP; 2208L and PyMT, 24 h, western blotting): efficiently degraded
- DCmax (Flag-HA-DCD23-EGFP; 2208L): 88%
- DCmax (Flag-HA-DCD23-EGFP; PyMT): 81%
